Data from article PMC8071183 (International Journal of Molecular Sciences, 2021).

Legend:
D2R = details: 1 µM haloperidol; 100 nM DA; cited from earlier work
GIRK channels [1] = assay: Direct GIRK channel block by haloperidol; format: cell-based; details: haloperidol at 3 µM; n = 4
GIRK channels [2] = details: haloperidol at 1 µM; cited from earlier work
D2R S193^5.42A = details: cited from earlier work
[3] = molecular target: T1, D2R S193^5.42A (human dopamine D2S receptor mutant) (Homo sapiens, UniProt P14416, S193A); assay: cell-based; details: read-out: koff ± SEM
[4] = molecular target: T1, D2R S193^5.42A (human dopamine D2S receptor mutant); assay: cell-based; details: for EC50: GIRK activation, perfusion 1 mL/min
Procedure: (§1) Following agonist application to Xenopus oocytes expressing D2R and GIRK1/4 subunits, Gβγ subunits released from activated Gi/o protein heterotrimers open the GIRK channels. […] Here, we used the GIRK current in oocytes voltage-clamped at −80 mV and superfused with a high-K^+ buffer (25 mM KCl) as a readout of agonist binding to D2R.
(§2) Thus, increasing agonist concentrations were applied consecutively to voltage-clamped oocytes expressing WT D2R, RGS4, and GIRK1/4. […] A representative trace of currents measured during p-tyramine concentration–response data acquisition is shown in Supplementary Figure S1).
(§3) Injected cells were incubated for another 6 days at 12 °C in modified Barth’s solution (MBS), composed of (in mM): 88 NaCl, 1 KCl, 2.4 NaHCO3, 15 HEPES, 0.33 Ca(NO3)2, 0.41 CaCl2, 0.92 MgSO4, and 2.5 sodium pyruvate, supplemented with 25 U/mL penicillin and 25 µg/mL streptomycin and adjusted to pH 7.6 with NaOH. […] For each concentration of agonist, the relative current amplitude after 60 s (when a steady-state response had been achieved) of agonist perfusion was plotted to generate the concentration-response relationships. Oocytes were selected for electrophysiology recordings based on having holding currents at −40 mV of less than 0.5 µA. Likewise, recordings where holding currents at −40 mV were greater than 0.5 µA after data acquisition at −80 mV were discarded.
(§4) Agonist concentration–response relationships were analyzed by fitting sigmoidal functions using nonlinear regression in GraphPad Prism 8 (GraphPad Software, San Diego, CA, USA).

[5] = molecular target: T2, WT D2R (human dopamine D2S receptor) (Homo sapiens, UniProt P14416); assay: cell-based
Procedure: as §1, §2, §3, §4

[6] = molecular target: T2, WT D2R (human dopamine D2S receptor); assay: GIRK current activation rate (kobs) vs agonist concentration (kon estimate), WT D2R; format: cell-based
Procedure: (§5) A straight line was fitted to the data over the linear range of the relation between kobs and agonist concentration and the slope was taken as a measure of kon.
(§6) Experiments were performed using a perfusion rate of 4.5 mL/min. […] Note the logarithmic y-axis. […] Data are presented as mean ± SEM.
(§7) Association rate constant estimates were derived from recordings of GIRK current activation in response to applications of various agonist concentrations. Monoexponential functions were fit to cover 80% of the current increase in response to agonist using Levenberg–Marquardt least-squares fitting in Clampfit 10, outputting the activation time constant, τact. […] However, rather than using Equation (2), koff was calculated separately from the response decay time constant upon agonist washout, τdeact, as described above.

[7] = molecular target: T2, WT D2R (human dopamine D2S receptor); assay: GIRK current deactivation following agonist washout (koff estimate), WT D2R; format: cell-based
Procedure: We obtained such estimates of koff by analyzing the washout phase following short (13 s) applications of submaximally effective agonist concentrations (see legend of Figure 2) in oocytes co-expressing WT D2R with GIRK1/4 and RGS4.
Experiments were performed using a perfusion rate of 4.5 mL/min. Data are presented as mean ± SEM.
as §3

[8] = molecular target: T1, D2R S193^5.42A (human dopamine D2S receptor mutant); assay: cell-based
Procedure: as §5, §6, §7
Kinetic Kds were calculated as:Kd = koff/kon(3)

T1 sequence (P14416 1-414 isoform P14416-2 S193A): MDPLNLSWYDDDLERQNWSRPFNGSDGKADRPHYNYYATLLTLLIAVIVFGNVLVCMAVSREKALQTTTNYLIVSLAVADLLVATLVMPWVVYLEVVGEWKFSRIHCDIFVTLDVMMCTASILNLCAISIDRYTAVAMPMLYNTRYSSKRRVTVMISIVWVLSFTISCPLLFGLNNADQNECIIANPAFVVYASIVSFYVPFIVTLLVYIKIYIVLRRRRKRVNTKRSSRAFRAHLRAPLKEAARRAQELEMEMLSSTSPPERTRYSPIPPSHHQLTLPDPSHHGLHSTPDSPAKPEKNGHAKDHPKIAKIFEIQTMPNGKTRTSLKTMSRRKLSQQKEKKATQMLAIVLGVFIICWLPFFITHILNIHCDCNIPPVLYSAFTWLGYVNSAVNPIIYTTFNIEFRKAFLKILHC
T2 sequence (P14416 1-414 isoform P14416-2): as the sequence (P14416 1-414 isoform P14416-2 S193A) above, with A193S counted along it

koff [3]	EC50 ([4]; EC50, S193^5.42A D2R)	Relative efficacy (fitted Top) ([4]; S193^5.42A D2R, normalized to the response evoked by 300 µM DA)	fold increase of DA-normalized agonist efficacy at S193^5.42A ([4]; S193^5.42A vs WT D2R)	EC50 ([4]; pEC50 ± SEM, S193^5.42A D2R)	EC50 [5]	Relative efficacy (fitted Top) ([5]; WT D2R, normalized to the response evoked by 1 µM DA)	Kd ([6]; Kd = koff/kon, read-out: pKd ± SEM (kinetic Kd) (converted))	kon ([6]; slope of linear fit of kobs vs agonist concentration, perfusion 4.5 mL/min)	koff [7]	Kd [8]	kon ([8]; read-out: kon ± SEM)	SMILES	block of the GIRK response to DA (D2R)	direct GIRK current block (GIRK channels [1])	GIRK channel block (GIRK channels [2])	decrease of affinity by alanine mutation of S193^5.42 (D2R S193^5.42A)
												O=C(CCCN1CCC(O)(c2ccc(Cl)cc2)CC1)c1ccc(F)cc1 [haloperidol]	fully blocks	5.9 ± 0.2%	negligible	
0.112 ± 0.008 s⁻¹	47.9 µM	0.37 ± 0.01	4.1 fold	47.9 µM	100 µM	0.09 ± 0.01	24.5 µM	4940 ± 1.15e+06 M⁻¹ s⁻¹	0.123 ± 0.008 s⁻¹	11.7 µM	9410 ± 2.34e+06 M⁻¹ s⁻¹	NCCc1ccc(O)cc1 [p-tyramine]				less than twofold
